# Measured values taken from ChEMBL document CHEMBL5661943, “ASAP - In vitro antiviral effect” (2024).
# Assays:
# Zika virus [1] = assay: EC50 is reported via analysis of immunofluorescence staining. The assay has been performed by Icahn School of Medicine at Mount Sinai.; assay type: functional, organism-based, Chlorocebus sabaeus, VeroE6/TMPRSS2; conditions: Baseline response 0 %, P-gp concentration 2 uM, P-gp inhibitor Elacidar
# dengue virus type 2 [2] = assay: Functional immunofluorescence assay to measure dose dependent changes in antiviral-drug inhibitory efficacy against Dengue virus type 2 Thailand/16681/84 in Vero E6/TMPRSS2 cells (cotreated with P-gp inhibitor, Elacridar). Cells are treated with antiviral candidates that are serially diluted, following infection, cells are fixed. EC50 is reported via analysis of immunofluorescence staining. The assay has been performed by Icahn School of Medicine at Mount Sinai.; assay type: organism-based, Chlorocebus sabaeus, VeroE6/TMPRSS2; conditions: Baseline response 0 %, Maximum response 100 %, P-gp concentration 2 uM, P-gp inhibitor Elacidar
# Zika virus [3] = assay: (§1) Functional CPE-based assay to measure dose dependent changes in antiviral-drug inhibitory efficacy against Zika virus MR766 in Vero E6 miRFP670 cells. Cells are treated with antiviral candidates that are serially diluted. EC50 is reported via analysis of MTS assay as a readout of CPE. The assay has been performed by KU Leuven.; assay type: organism-based, Chlorocebus sabaeus, Vero C1008; conditions: for EC90: Baseline response 0 %, Maximum response 100 %
# Zika virus [4] = assay: as §1, with “cells (cotreated with P-gp inhibitor, CP100356).” for “cells.”; assay type: organism-based, Chlorocebus sabaeus, Vero C1008; conditions: Baseline response 0 %, Maximum response 100 %, P-gp concentration 500 nM, P-gp inhibitor CP100356
# dengue virus type 2 [5] = assay: Functional assay to measure dose dependent changes in antiviral-drug inhibitory efficacy against Dengue virus type 2 New Guinea C in Vero E6 miRFP670 cells (cotreated with P-gp inhibitor, CP100356). Cells are treated with antiviral candidates that are serially diluted, following infection, cells are fixed. EC50 is reported via analysis of fluorescence intensity using high-content imager. The …; assay type: organism-based, Chlorocebus sabaeus, Vero C1008; conditions: Baseline response 0 %, Maximum response 100 %, P-gp concentration 500 nM, P-gp inhibitor CP100356
compound,measurement,setting,value
C#C[C@@]1(O)[C@H](O)[C@@H](CO)O[C@H]1n1ccc2c(N)ncnc21,EC90,"Zika virus [1]; EC90 CI (lower) 0.001 uM, EC90 CI (upper) 0.006 uM, Hill slope -0.989, Maximum measured 96.238 %, Maximum response 100 %, Minimum measured 0.519 %, R squared 0.897",224 nM
same,EC90,"Zika virus [1]; EC90 CI (lower) 0.002 uM, EC90 CI (upper) 0.011 uM, Hill slope -0.683, Maximum measured 98.748 %, Maximum response 100 %, Minimum measured 0.794 %, R squared 0.927",2880 nM
same,EC90,"Zika virus [1]; EC90 CI (lower) 0.002 uM, EC90 CI (upper) 0.016 uM, Hill slope -0.839, Maximum measured 81.893 %, Maximum response 100 %, Minimum measured 1.248 %, R squared 0.884",1180 nM
same,EC90,"Zika virus [1]; EC90 CI (lower) 0.007 uM, EC90 CI (upper) 0.18 uM, Hill slope -1.662, Maximum measured 169.951 %, Maximum response 100 %, Minimum measured 5.93 %, R squared 0.731",510 nM
same,EC90,"Zika virus [1]; EC90 CI (lower) 0.03 uM, EC90 CI (upper) 0.119 uM, Hill slope -3.091, Maximum measured 117.52 %, Maximum response 100 %, Minimum measured 1.1 %, R squared 0.948",247 nM
same,EC90,"Zika virus [1]; EC90 CI (lower) 0.051 uM, EC90 CI (upper) 0.519 uM, Hill slope -4.939, Maximum measured 48.685 %, Maximum response 50 %, Minimum measured […], R squared 0.852",395 nM
same,EC90,"Zika virus [1]; EC90 CI (lower) 0.102 uM, EC90 CI (upper) 0.325 uM, Hill slope -1.64, Maximum measured 123.086 %, Maximum response 100 %, Minimum measured 10.677 %, R squared 0.94",2650 nM
same,EC90,"Zika virus [1]; Hill slope -0.492, Maximum measured 74.448 %, Maximum response 100 %, Minimum measured 1.207 %, R squared 0.744",> 10000 nM
same,EC90,"dengue virus type 2 [2]; EC90 CI (lower) 0.185 uM, EC90 CI (upper) 0.987 uM, Hill slope -1.843, Maximum measured 114.823 %, Minimum measured 1.4 %, R squared 0.854",4.64 µM
same,EC90,"dengue virus type 2 [2]; EC90 CI (lower) […] uM, EC90 CI (upper) 0.029 uM, Hill slope -0.795, Maximum measured 131.547 %, Minimum measured 0.898 %, R squared 0.782",1.45 µM
same,EC90,"dengue virus type 2 [2]; EC90 CI (lower) […] uM, EC90 CI (upper) 0.107 uM, Hill slope -1.582, Maximum measured 108.655 %, Minimum measured 1.401 %, R squared 0.84",0.595 µM
same,EC90,"dengue virus type 2 [2]; EC90 CI (lower) […] uM, EC90 CI (upper) 0.213 uM, Hill slope -0.879, Maximum measured 109.405 %, Minimum measured 0.502 %, R squared 0.793",8.04 µM
same,EC90,"Zika virus [3]; EC90 CI (lower) 0.609 uM, EC90 CI (upper) 2.047 uM, Hill slope 2.369, Maximum measured 114.788 %, Minimum measured 45.711 %, R squared 0.779",1120 nM
same,EC90,"Zika virus [3]; EC90 CI (lower) 0.671 uM, EC90 CI (upper) 2.798 uM, Hill slope 1.934, Maximum measured 102.059 %, Minimum measured 46.421 %, R squared 0.63",1370 nM
same,EC90,"Zika virus [3]; EC90 CI (lower) 0.837 uM, EC90 CI (upper) 2.594 uM, Hill slope 2.016, Maximum measured 108.843 %, Minimum measured 40.384 %, R squared 0.792",1470 nM
same,EC90,"Zika virus [3]; EC90 CI (lower) 0.846 uM, EC90 CI (upper) 2.023 uM, Hill slope 2.239, Maximum measured 110.829 %, Minimum measured 40.755 %, R squared 0.884",1310 nM
same,EC90,"Zika virus [3]; EC90 CI (lower) 0.889 uM, EC90 CI (upper) 2.697 uM, Hill slope 2.299, Maximum measured 106.469 %, Minimum measured 29.185 %, R squared 0.791",1550 nM
same,EC90,"Zika virus [3]; EC90 CI (lower) 1.189 uM, EC90 CI (upper) 2.428 uM, Hill slope 2.067, Maximum measured 109.57 %, Minimum measured 34.796 %, R squared 0.858",1700 nM
same,EC90,"Zika virus [3]; EC90 CI (lower) 1.447 uM, EC90 CI (upper) 5.92 uM, Hill slope 1.376, Maximum measured 98.736 %, Minimum measured 36.6 %, R squared 0.773",2930 nM
same,EC90,"Zika virus [3]; EC90 CI (lower) 2.603 uM, EC90 CI (upper) 13.676 uM, Hill slope 1.372, Maximum measured 98.49 %, Minimum measured 18.919 %, R squared 0.79",5970 nM
same,EC50,Zika virus [3]; vero c1008,587 nM [middle of 8 runs]
same,EC90,"Zika virus [4]; EC90 CI (lower) 0.21 uM, EC90 CI (upper) 1.971 uM, Hill slope 4.843, Maximum measured 127.846 %, Minimum measured 44.624 %, R squared 0.529",644 nM
same,EC90,"Zika virus [4]; EC90 CI (lower) 0.347 uM, EC90 CI (upper) 1.935 uM, Hill slope 4.005, Maximum measured 138.155 %, Minimum measured 32.327 %, R squared 0.565",819 nM
same,EC90,"Zika virus [4]; EC90 CI (lower) 0.485 uM, EC90 CI (upper) 1.678 uM, Hill slope 2.708, Maximum measured 115.594 %, Minimum measured 50.299 %, R squared 0.731",902 nM
same,EC90,"Zika virus [4]; EC90 CI (lower) 0.573 uM, EC90 CI (upper) 1.709 uM, Hill slope 2.773, Maximum measured 114.82 %, Minimum measured 43.135 %, R squared 0.56",990 nM
same,EC90,"Zika virus [4]; EC90 CI (lower) 0.644 uM, EC90 CI (upper) 1.624 uM, Hill slope 2.782, Maximum measured 120.433 %, Minimum measured 40.681 %, R squared 0.677",1020 nM
same,EC90,"Zika virus [4]; EC90 CI (lower) 0.736 uM, EC90 CI (upper) 2.012 uM, Hill slope 2.837, Maximum measured 119.107 %, Minimum measured 28.833 %, R squared 0.835",1220 nM
same,EC90,"Zika virus [4]; EC90 CI (lower) 0.778 uM, EC90 CI (upper) 1.421 uM, Hill slope 2.877, Maximum measured 117.074 %, Minimum measured 36.973 %, R squared 0.767",1050 nM
same,EC90,"Zika virus [4]; EC90 CI (lower) 1.744 uM, EC90 CI (upper) 2.505 uM, Hill slope 3.857, Maximum measured 108.608 %, Minimum measured 1.409 %, R squared 0.98",2090 nM
same,EC90,"Zika virus [4]; Hill slope -0.24, Maximum measured 59.299 %, Minimum measured 14.65 %, R squared 0.03",< 391 nM
same,EC90,"dengue virus type 2 [5]; EC90 CI (lower) 0.063 uM, EC90 CI (upper) 0.198 uM, Hill slope -1.33, Maximum measured 59.85 %, Minimum measured 0.021 %, R squared 0.933",3050 nM
same,EC90,"dengue virus type 2 [5]; EC90 CI (lower) 0.096 uM, EC90 CI (upper) 0.332 uM, Hill slope -1.394, Maximum measured 69.235 %, Minimum measured 0.073 %, R squared 0.818",4170 nM
same,EC90,"dengue virus type 2 [5]; EC90 CI (lower) 0.135 uM, EC90 CI (upper) 0.222 uM, Hill slope -1.408, Maximum measured 67.754 %, Minimum measured 0.12 %, R squared 0.962",3930 nM
same,EC90,"dengue virus type 2 [5]; EC90 CI (lower) 0.182 uM, EC90 CI (upper) 0.848 uM, Hill slope -1.407, Maximum measured 79.293 %, Minimum measured 0.097 %, R squared 0.879",8930 nM
same,EC90,"dengue virus type 2 [5]; EC90 CI (lower) 0.301 uM, EC90 CI (upper) 0.481 uM, Hill slope -1.99, Maximum measured 82.418 %, Minimum measured 0.182 %, R squared 0.957",3460 nM
same,EC90,"dengue virus type 2 [5]; EC90 CI (lower) 0.335 uM, EC90 CI (upper) 2.73 uM, Hill slope -2.159, Maximum measured 105.079 %, Minimum measured 6.932 %, R squared 0.477",7320 nM
same,EC90,"dengue virus type 2 [5]; EC90 CI (lower) 0.344 uM, EC90 CI (upper) 0.572 uM, Hill slope -2.092, Maximum measured 82.86 %, Minimum measured 0.014 %, R squared 0.949",3620 nM
same,EC90,"dengue virus type 2 [5]; EC90 CI (lower) 0.345 uM, EC90 CI (upper) 0.574 uM, Hill slope -1.668, Maximum measured 91.855 %, Minimum measured 0.191 %, R squared 0.984",6210 nM
same,EC90,"dengue virus type 2 [5]; EC90 CI (lower) 0.345 uM, EC90 CI (upper) 1.174 uM, Hill slope -1.957, Maximum measured 94.468 %, Minimum measured 0.047 %, R squared 0.91",6020 nM
same,EC90,"dengue virus type 2 [5]; EC90 CI (lower) 0.37 uM, EC90 CI (upper) 0.571 uM, Hill slope -1.792, Maximum measured 85.803 %, Minimum measured 0.04 %, R squared 0.97",5340 nM
same,EC90,"dengue virus type 2 [5]; EC90 CI (lower) 0.614 uM, EC90 CI (upper) 2.492 uM, Hill slope -4.433, Maximum measured 159.506 %, Minimum measured 0.037 %, R squared 0.838",3330 nM
same,EC90,"dengue virus type 2 [5]; EC90 CI (lower) 0.95 uM, EC90 CI (upper) 1.728 uM, Hill slope -2.215, Maximum measured 94.435 %, Minimum measured 0.459 %, R squared 0.976",9320 nM
same,EC90,"dengue virus type 2 [5]; EC90 CI (lower) 1.094 uM, EC90 CI (upper) 1.586 uM, Hill slope -2.299, Maximum measured 103.071 %, Minimum measured 0.093 %, R squared 0.991",8910 nM
same,EC90,"dengue virus type 2 [5]; EC90 CI (lower) 1.321 uM, EC90 CI (upper) 1.732 uM, Hill slope -3.141, Maximum measured 106.546 %, Minimum measured 0.058 %, R squared 0.995",6130 nM
same,EC90,"dengue virus type 2 [5]; EC90 CI (lower) 1.689 uM, EC90 CI (upper) 2.244 uM, Hill slope -3.785, Maximum measured 107.412 %, Minimum measured 0.007 %, R squared 0.985",6210 nM
same,EC90,"dengue virus type 2 [5]; EC90 CI (lower) […], EC90 CI (upper) 1.65 uM, Hill slope -1.956, Maximum measured 86.89 %, Minimum measured 0.152 %, R squared 0.926",9090 nM
